# Assay results taken from publication PMC9967275, “Screening the Pathogen Box to Discover and Characterize New Cruzain and TbrCatL Inhibitors” (Pathogens, 2023).
# Biological target: cruzain (Trypanosoma cruzi, UniProt P25779);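 for Cruzain 0’ Inhibition: at 5 µM compound concentration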;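 for Cruzain 10’ Inhibition: at 5 µM compound concentration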
# Assay: biochemical
# Conditions: 0’ (pre-incubation time); sheet "Screening results"
# Method in brief: (§1)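 Recombinant enzymes assayed by Z-Phe-Arg-AMC cleavage at 25 °C, fluorescence 340/440 nm over 5–7 min, with 10 min or no enzyme–compound preincubation.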
# cruzain, sequence (P25779 123-337 limits assumed): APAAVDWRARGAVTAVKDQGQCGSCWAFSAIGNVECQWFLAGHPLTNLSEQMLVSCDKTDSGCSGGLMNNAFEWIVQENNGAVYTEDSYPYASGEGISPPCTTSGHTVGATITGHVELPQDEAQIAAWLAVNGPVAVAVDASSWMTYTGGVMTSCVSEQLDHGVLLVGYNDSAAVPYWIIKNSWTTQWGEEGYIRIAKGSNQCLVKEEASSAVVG
row,SMILES,Cruzain 0’ Inhibition
1,O=C(Nc1ccc(N2CCNCC2)nc1)c1oc(-c2ccccc2)nc1C(F)(F)F [MMV024937],5.6%
2,CCn1ncc2c(NC3CCOCC3)c(CNC(=O)c3ccnn3C)c(C)nc21 [MMV026356],-0.3%
3,OCc1ccc(-c2cncc(Nc3cccc(Cl)c3)c2)cc1 [MMV026468],0%
4,O=C(NCCc1ccccc1)c1cc(-c2cccnc2)cnc1NCC1CC1 [MMV026490],-1.3%
5,CC(C)(C)CN1C(=O)C(c2ccccc2)(c2ccccc2)N=C1N [MMV026550],0%
6,OCCc1ccc(Nc2nccc(-c3nnc4ccccn34)n2)cc1 [MMV028694],7%
7,CC(C)(CN)c1nc(-c2ccc(Cl)c(O)c2)c(-c2ccnc(N)n2)[nH]1 [MMV030734],5%
8,CNC(=O)C1Cc2c([nH]c3cc(Cl)ccc23)C2(CCN(CCc3ccccc3)CC2)N1 (stereo not shown) [MMV031011],-7.5%
9,FC(F)(F)c1cccc(-c2nc3c(NCc4ccncc4)nccc3[nH]2)c1 [MMV032967],-4.6%
10,O=C1COCc2ccc(Br)cc2N1Cc1ccc(C(F)(F)F)cc1 [MMV032995],-5%
11,c1ccc(Oc2ccc(-c3cc(N4CCOCC4)n[nH]3)cc2)cc1 [MMV045105],1.3%
12,COc1cc(C(F)(F)F)nc2ccc(C)c(N)c12 [MMV047015],1.1%
13,Cc1cc(C)nc(-n2nc(C)cc2Nc2ccccc2)n1 [MMV062221],-21%
14,COc1cncc(-c2cncc(N3CCN(c4ccncc4)CC3)n2)c1 [MMV085071],3.8%
15,CCCNC(=O)N1CCC2(CC1)CC(=O)c1cc(C)ccc1O2 [MMV085230],15%

# Same assay, conditions: 10’ (pre-incubation time); sheet "Screening results"
row,SMILES,Cruzain 10’ Inhibition
1,O=C(Nc1ccc(N2CCNCC2)nc1)c1oc(-c2ccccc2)nc1C(F)(F)F [MMV024937],14%
2,CCn1ncc2c(NC3CCOCC3)c(CNC(=O)c3ccnn3C)c(C)nc21 [MMV026356],1.1%
3,OCc1ccc(-c2cncc(Nc3cccc(Cl)c3)c2)cc1 [MMV026468],2.8%
4,O=C(NCCc1ccccc1)c1cc(-c2cccnc2)cnc1NCC1CC1 [MMV026490],-5%
5,CC(C)(C)CN1C(=O)C(c2ccccc2)(c2ccccc2)N=C1N [MMV026550],2.8%
6,OCCc1ccc(Nc2nccc(-c3nnc4ccccn34)n2)cc1 [MMV028694],14%
7,CC(C)(CN)c1nc(-c2ccc(Cl)c(O)c2)c(-c2ccnc(N)n2)[nH]1 [MMV030734],-5.6%
8,CNC(=O)C1Cc2c([nH]c3cc(Cl)ccc23)C2(CCN(CCc3ccccc3)CC2)N1 (stereo not shown) [MMV031011],-0.7%
9,FC(F)(F)c1cccc(-c2nc3c(NCc4ccncc4)nccc3[nH]2)c1 [MMV032967],-2.4%
10,O=C1COCc2ccc(Br)cc2N1Cc1ccc(C(F)(F)F)cc1 [MMV032995],0.2%
11,c1ccc(Oc2ccc(-c3cc(N4CCOCC4)n[nH]3)cc2)cc1 [MMV045105],29%
12,COc1cc(C(F)(F)F)nc2ccc(C)c(N)c12 [MMV047015],5.5%
13,Cc1cc(C)nc(-n2nc(C)cc2Nc2ccccc2)n1 [MMV062221],-3%
14,COc1cncc(-c2cncc(N3CCN(c4ccncc4)CC3)n2)c1 [MMV085071],-19%
15,CCCNC(=O)N1CCC2(CC1)CC(=O)c1cc(C)ccc1O2 [MMV085230],18%

# Same assay, conditions: read-out: Cruzain 0’ Inhibition, 0’ (pre-incubation time); sheet "Screening results"
row,SMILES,inhibition at 5 µM
1,N#Cc1ccc(-c2cnc(N)c(-c3ccc(C(N)=O)cc3)n2)cc1 [MMV085499],0.5%

# Same assay, conditions: read-out: Cruzain 10’ Inhibition, 10’ (pre-incubation time); sheet "Screening results"
row,SMILES,inhibition at 5 µM
1,N#Cc1ccc(-c2cnc(N)c(-c3ccc(C(N)=O)cc3)n2)cc1 [MMV085499],25%

# Same assay, conditions: read-out: Inhibition at 5 µM (Mean ± SEM %) Cruzain 0′, 5 µM, no pre-incubation, initial screening
row,SMILES,inhibition at 5 µM
1,N#Cc1ccc(-c2cnc(N)c(-c3ccc(C(N)=O)cc3)n2)cc1 [MMV085499],2 ± 3%

# Same assay, conditions: read-out: Inhibition at 5 µM (Mean ± SEM %) Cruzain 10′ inc, 5 µM, 10′ pre-incubation, initial screening
row,SMILES,inhibition at 5 µM
1,N#Cc1ccc(-c2cnc(N)c(-c3ccc(C(N)=O)cc3)n2)cc1 [MMV085499],25 ± 4%

# Same assay, conditions: read-out: Inhibition at 100 µM (Mean ± SEM %) Cruzain 0′, 100 µM, no pre-incubation, solid samples
row,SMILES,inhibition at 100 µM
1,N#Cc1ccc(-c2cnc(N)c(-c3ccc(C(N)=O)cc3)n2)cc1 [MMV085499],0%

# Same assay, conditions: read-out: Inhibition at 100 µM (Mean ± SEM %) Cruzain 10′ inc, 100 µM, 10′ pre-incubation, solid samples
row,SMILES,inhibition at 100 µM
1,N#Cc1ccc(-c2cnc(N)c(-c3ccc(C(N)=O)cc3)n2)cc1 [MMV085499],0%

# Same assay, conditions: read-out: Inhibition of cruzain or TbrCatL (either enzyme) in the initial screening, 5 µM; either cruzain or TbrCatL, with or without pre-incubation
row,SMILES,inhibition at 5 µM
1,N#Cc1ccc(-c2cnc(N)c(-c3ccc(C(N)=O)cc3)n2)cc1 [MMV085499],≥ 40%

# Biological target: T1, TbrCatL (Trypanosoma brucei rhodesiense, UniProt Q95PM0)
# T1 construct: Conor Caffrey (University of California San Diego)
# T1 sequence (Q95PM0 entry or part of it): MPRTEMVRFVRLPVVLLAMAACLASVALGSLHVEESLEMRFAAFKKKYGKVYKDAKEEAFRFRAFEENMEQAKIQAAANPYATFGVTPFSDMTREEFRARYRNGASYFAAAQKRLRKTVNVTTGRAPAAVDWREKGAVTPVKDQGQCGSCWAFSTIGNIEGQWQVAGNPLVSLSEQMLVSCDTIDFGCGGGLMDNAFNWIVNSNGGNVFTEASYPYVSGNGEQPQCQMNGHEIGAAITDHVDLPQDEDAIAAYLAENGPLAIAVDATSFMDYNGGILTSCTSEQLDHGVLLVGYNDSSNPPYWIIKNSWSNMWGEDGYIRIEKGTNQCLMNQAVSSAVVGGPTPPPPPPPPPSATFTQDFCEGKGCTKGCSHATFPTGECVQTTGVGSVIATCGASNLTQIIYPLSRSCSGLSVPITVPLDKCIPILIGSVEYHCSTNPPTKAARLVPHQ
# Assay: TbrCatL enzymatic inhibition assay (cleavage of fluorogenic substrate Z-FR-AMC);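 for TbrCatL 0’ Inhibition: at 5 µM compound concentration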;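 for TbrCatL 10’ Inhibition: at 5 µM compound concentration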
# Type: biochemical
# Conditions: 0’ (pre-incubation time); sheet "Screening results"
# Method in brief: as §1
row,SMILES,TbrCatL 0’ Inhibition
1,O=C(Nc1ccc(N2CCNCC2)nc1)c1oc(-c2ccccc2)nc1C(F)(F)F [MMV024937],20%
2,CCn1ncc2c(NC3CCOCC3)c(CNC(=O)c3ccnn3C)c(C)nc21 [MMV026356],-6%
3,OCc1ccc(-c2cncc(Nc3cccc(Cl)c3)c2)cc1 [MMV026468],1.7%
4,O=C(NCCc1ccccc1)c1cc(-c2cccnc2)cnc1NCC1CC1 [MMV026490],0.1%
5,CC(C)(C)CN1C(=O)C(c2ccccc2)(c2ccccc2)N=C1N [MMV026550],-5%
6,OCCc1ccc(Nc2nccc(-c3nnc4ccccn34)n2)cc1 [MMV028694],8%
7,CC(C)(CN)c1nc(-c2ccc(Cl)c(O)c2)c(-c2ccnc(N)n2)[nH]1 [MMV030734],7.5%
8,CNC(=O)C1Cc2c([nH]c3cc(Cl)ccc23)C2(CCN(CCc3ccccc3)CC2)N1 (stereo not shown) [MMV031011],-11%
9,FC(F)(F)c1cccc(-c2nc3c(NCc4ccncc4)nccc3[nH]2)c1 [MMV032967],-7%
10,O=C1COCc2ccc(Br)cc2N1Cc1ccc(C(F)(F)F)cc1 [MMV032995],-7%
11,c1ccc(Oc2ccc(-c3cc(N4CCOCC4)n[nH]3)cc2)cc1 [MMV045105],2%
12,COc1cc(C(F)(F)F)nc2ccc(C)c(N)c12 [MMV047015],15%
13,Cc1cc(C)nc(-n2nc(C)cc2Nc2ccccc2)n1 [MMV062221],-32%
14,COc1cncc(-c2cncc(N3CCN(c4ccncc4)CC3)n2)c1 [MMV085071],-0.1%
15,CCCNC(=O)N1CCC2(CC1)CC(=O)c1cc(C)ccc1O2 [MMV085230],8.5%

# Same assay, conditions: 10’ (pre-incubation time); sheet "Screening results"
row,SMILES,TbrCatL 10’ Inhibition
1,O=C(Nc1ccc(N2CCNCC2)nc1)c1oc(-c2ccccc2)nc1C(F)(F)F [MMV024937],23%
2,CCn1ncc2c(NC3CCOCC3)c(CNC(=O)c3ccnn3C)c(C)nc21 [MMV026356],-7%
3,OCc1ccc(-c2cncc(Nc3cccc(Cl)c3)c2)cc1 [MMV026468],2.7%
4,O=C(NCCc1ccccc1)c1cc(-c2cccnc2)cnc1NCC1CC1 [MMV026490],-13%
5,CC(C)(C)CN1C(=O)C(c2ccccc2)(c2ccccc2)N=C1N [MMV026550],0.2%
6,OCCc1ccc(Nc2nccc(-c3nnc4ccccn34)n2)cc1 [MMV028694],13%
7,CC(C)(CN)c1nc(-c2ccc(Cl)c(O)c2)c(-c2ccnc(N)n2)[nH]1 [MMV030734],-9.5%
8,CNC(=O)C1Cc2c([nH]c3cc(Cl)ccc23)C2(CCN(CCc3ccccc3)CC2)N1 (stereo not shown) [MMV031011],-8%
9,FC(F)(F)c1cccc(-c2nc3c(NCc4ccncc4)nccc3[nH]2)c1 [MMV032967],1.3%
10,O=C1COCc2ccc(Br)cc2N1Cc1ccc(C(F)(F)F)cc1 [MMV032995],-7%
11,c1ccc(Oc2ccc(-c3cc(N4CCOCC4)n[nH]3)cc2)cc1 [MMV045105],22%
12,COc1cc(C(F)(F)F)nc2ccc(C)c(N)c12 [MMV047015],4%
13,Cc1cc(C)nc(-n2nc(C)cc2Nc2ccccc2)n1 [MMV062221],-72%
14,COc1cncc(-c2cncc(N3CCN(c4ccncc4)CC3)n2)c1 [MMV085071],-10%
15,CCCNC(=O)N1CCC2(CC1)CC(=O)c1cc(C)ccc1O2 [MMV085230],13%

# Same assay, conditions: read-out: Inhibition at 5 µM (Mean ± SEM %) TbrCatL 0′
row,SMILES,inhibition at 5 µM
1,N#Cc1ccc(-c2cnc(N)c(-c3ccc(C(N)=O)cc3)n2)cc1 [MMV085499],12 ± 8%

# Same assay, conditions: read-out: Inhibition at 5 µM (Mean ± SEM %) TbrCatL 10′ inc
row,SMILES,inhibition at 5 µM
1,N#Cc1ccc(-c2cnc(N)c(-c3ccc(C(N)=O)cc3)n2)cc1 [MMV085499],46 ± 5%

# Same assay, conditions: read-out: Inhibition at 100 µM (Mean ± SEM %) TbrCatL 0′
row,SMILES,inhibition at 100 µM
1,N#Cc1ccc(-c2cnc(N)c(-c3ccc(C(N)=O)cc3)n2)cc1 [MMV085499],26 ± 18%

# Same assay, conditions: read-out: Inhibition at 100 µM (Mean ± SEM %) TbrCatL 10′ inc
row,SMILES,inhibition at 100 µM
1,N#Cc1ccc(-c2cnc(N)c(-c3ccc(C(N)=O)cc3)n2)cc1 [MMV085499],0%

# Same assay, conditions: read-out: TbrCatL 0’ Inhibition
row,SMILES,inhibition at 5 µM
1,N#Cc1ccc(-c2cnc(N)c(-c3ccc(C(N)=O)cc3)n2)cc1 [MMV085499],9%

# Same assay, conditions: read-out: TbrCatL 10’ Inhibition
row,SMILES,inhibition at 5 µM
1,N#Cc1ccc(-c2cnc(N)c(-c3ccc(C(N)=O)cc3)n2)cc1 [MMV085499],46%
